This note sets out measurements from patent publication US9487554B2, “Estra-1,3,5(10),16-tetraene-3-carboxamide derivatives, processes for their preparation, pharmaceutical preparations comprising them and their use for preparing medicaments” (BAYER INTELLECTUAL PROPERTY GmbH, priority 2011, dated 2016).

Several values for one entry are separate records, joined by “and”; a condition that tells them apart may be missing. Identical values can stand only once.

Sequence of Human CYP17A1 (P05093 whole entry): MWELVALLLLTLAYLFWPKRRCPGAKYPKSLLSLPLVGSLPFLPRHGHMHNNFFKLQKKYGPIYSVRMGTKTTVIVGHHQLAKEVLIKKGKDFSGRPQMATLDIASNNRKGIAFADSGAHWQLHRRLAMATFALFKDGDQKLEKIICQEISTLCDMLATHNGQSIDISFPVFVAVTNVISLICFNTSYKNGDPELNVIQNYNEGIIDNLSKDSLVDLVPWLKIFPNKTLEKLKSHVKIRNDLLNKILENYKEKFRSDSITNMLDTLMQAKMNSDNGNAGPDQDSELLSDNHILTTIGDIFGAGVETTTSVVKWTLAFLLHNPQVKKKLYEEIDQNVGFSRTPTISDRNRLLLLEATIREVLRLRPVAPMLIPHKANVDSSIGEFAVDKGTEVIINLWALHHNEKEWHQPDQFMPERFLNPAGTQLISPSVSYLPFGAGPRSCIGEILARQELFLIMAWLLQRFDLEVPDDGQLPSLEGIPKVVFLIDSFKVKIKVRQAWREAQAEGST
Sequence of recombinant human AKR1C3 (P42330 whole entry): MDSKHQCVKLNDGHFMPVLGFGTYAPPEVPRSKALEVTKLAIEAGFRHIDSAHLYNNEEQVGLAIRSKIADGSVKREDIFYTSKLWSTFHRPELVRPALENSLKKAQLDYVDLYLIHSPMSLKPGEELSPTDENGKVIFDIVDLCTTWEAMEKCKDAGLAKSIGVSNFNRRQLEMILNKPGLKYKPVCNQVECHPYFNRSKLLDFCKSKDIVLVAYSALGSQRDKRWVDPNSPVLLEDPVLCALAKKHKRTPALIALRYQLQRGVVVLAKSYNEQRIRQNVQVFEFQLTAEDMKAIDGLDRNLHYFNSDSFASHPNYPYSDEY

The first experiment concerns the target recombinant human AKR1C3 (Homo sapiens (Human), UniProt P42330). Briefly: AKR1C3 enzyme inhibition assay (Coumberone to Coumberol fluorescence). Type of experiment: biochemical. The settings on record: individual experimental determinations. As to the method:
The AKR1C3-inhibitory activity of the substances of the present invention was measured in the AKR1C3 assay described in the paragraphs below.
Essentially, the enzyme activity is measured by quantification of the Coumberol from Coumberone (Halim, M., Yee, D. J., and Sames, D., J. AM. CHEM. SOC. 130, 14123-14128 (2008) and Yee, D. J., Balsanek, V., Bauman, D. R., Penning, T. M., and Sames, D., Proc. Natl. Acad. Sci. USA 103, 13304-13309 (2006)). In this test, the increase of the highly fluorescent Coumberol by NADPH—(nicotinamide adenine dinucleotide phosphate)-dependent reduction of the non-fluorescent Coumberone by AKR1C3 can be determined.
The enzyme used was recombinant human AKR1C3 (Aldo-keto reductase family 1 member C3) (GenBank Accession No. NM_003739). This was expressed in E. coli as GST (glutathione S transferase) fusion protein and purified by glutathione Sepharose affinity chromatography. The GST was removed by digestion with thrombin and subsequent size exclusion chromatography (Dufort, I., Rheault, P., Huang, X F., Soucy, P., and Luu-The, V., Endocrinology 140, 568-574 (1999)).
For the assay, 50 nl of a 100-fold concentrated solution of the test substance in DMSO were pipetted into a black low-volume 384-well microtiter plate (Greiner Bio-One, Frickenhausen, Germany), 2.0 μl of a solution of AKR1C3 in assay buffer [50 mM potassium phosphate buffer pH 7, 1 mM DTT, 0.0022% (w/v) Pluronic F-127, 0.01% BSA (w/v) and protease inhibitor cocktail (Complete, EDTA-free Protease Inhibitor Cocktail from Roche)] were added and the mixture was incubated for 15 min to allow pre-binding of the substances to the enzyme prior to the enzyme reaction. The enzyme reaction was then started by addition of 3 μl of a solution of NADPH (16.7 μM→final concentration in 5 μl of assay volume is 10 μM) and Coumberone (0.5 μM→final concentration in 5 μl of assay volume is 0.3 μM) in assay buffer, and the resulting mixture was incubated at 22° C. for the reaction time of 90 min. The concentration of the AKR1C3 was adapted to the respective activity of the enzyme preparation and adjusted such that the assay was carried out in the linear range. Typical concentrations were in the region of 1 nM. The reaction was stopped by addition of 5 μl of a stop solution consisting of the inhibitor EM-1404 [F. Labrie et al. U.S. Pat. No. 6,541,463, 2003] (2 μM→final concentration in […] is 1 μM). The fluorescence of the Coumberole was then measured at 520 nm (excitation at 380 nm) using a suitable measuring instrument (Pherastar from BMG Labtechnologies). The intensity of the fluorescence was used as a measure of the amount of Coumberole formed and thus of the enzyme activity of AKR1C3. The data were normalized (enzyme reaction without inhibitor=0% inhibition; all other assay components, but no enzyme=100% inhibition).
As to `CC(C)(CNC(=O)c1ccc2c(c1)CC[C@@H]1[C@@H]2CC[C@]2(C)C(c3cncc(F)c3)=CC[C@@H]12)C(=O)O` [Example 5, 3-({[17-(5-Fluoropyridin-3-yl)estra-1,3,5(10),16-tetraen-3-yl]carbonyl}amino)-2,2-dimethylpropanoic acid], the concentration for half-maximal inhibition (IC50) is 9.1 nM and 8 nM and 4.3 nM and 3.6 nM.

For `CN(CCC(=O)O)C(=O)c1ccc2c(c1)CC[C@@H]1[C@@H]2CC[C@]2(C)C(c3cncc(C(F)(F)F)c3)=CC[C@@H]12` [Example 22, N-Methyl-N-({17-[5-(trifluoromethyl)pyridin-3-yl]estra-1,3,5(10),16-tetraen-3-yl}carbonyl)-β-alanine], the IC50 is 4.2 nM.

For the compound `C[C@@H](CC(=O)O)NC(=O)c1ccc2c(c1)CC[C@@H]1[C@@H]2CC[C@]2(C)C(c3cncc(F)c3)=CC[C@@H]12` [Example 12, (S)-3-({[17-(5-Fluoropyridin-3-yl)estra-1,3,5(10),16-tetraen-3-yl]carbonyl}amino)-butanoic acid], the IC50 is 1.2 nM and 1.7 nM.

For `C[C@]12CC[C@@H]3c4ccc(C(=O)NCCC(=O)O)cc4CC[C@H]3[C@@H]1CC=C2c1cncnc1` [Example 17, N-{[17-(Pyrimidin-5-yl)estra-1,3,5(10),16-tetraen-3-yl]carbonyl}-β-alanine], the half-maximal inhibitory concentration (IC50) was 29.7 nM and 37.6 nM.

In the case of `C[C@]12CC[C@@H]3c4ccc(C(=O)NCCC(=O)O)cc4CC[C@H]3[C@@H]1CC=C2c1cncc(F)c1` [Example 9, N-{[17-(5-Fluoropyridin-3-yl)estra-1,3,5(10),16-tetraen-3-yl]carbonyl}-β-alanine], the IC50 was 8.3 nM and 8.9 nM (2×).

On to `C[C@]12CC[C@@H]3c4ccc(C(=O)N[C@@H]5CCC[C@@H]5C(=O)O)cc4CC[C@H]3[C@@H]1CC=C2c1cncc(F)c1` (relative stereo) [Example 11, (1R*,2S*)-2-({[17-(5-Fluoropyridin-3-yl)estra-1,3,5(10),16-tetraen-3-yl]carbonyl}amino)-cyclopentane-1-carboxylic acid], for which the IC50 is 2.2 nM and 1.8 nM.

As for `C[C@]12CC[C@@H]3c4ccc(C(=O)N5CCC[C@@H]5C(=O)O)cc4CC[C@H]3[C@@H]1CC=C2c1cncc(F)c1` [Example 24, N-{[17-(5-Fluoropyridin-3-yl)estra-1,3,5(10),16-tetraen-3-yl]carbonyl}-D-proline], the IC50 was 5.3 nM.

Turning to `COc1cncc(C2=CC[C@H]3[C@@H]4CCc5cc(C(=O)NCC(C)(C)C(=O)O)ccc5[C@H]4CC[C@]23C)c1` [Example 14, 3-({[17-(5-Methoxypyridin-3-yl)estra-1,3,5(10),16-tetraen-3-yl]carbonyl}amino)-2,2-dimethylpropanoic acid], the IC50 is 9.8 nM and 17.9 nM.

In the case of `CN(CCC(=O)O)C(=O)c1ccc2c(c1)CC[C@H]1[C@@H]3[C@H](O)C=C(c4cncc(F)c4)[C@@]3(C)CC[C@H]21` [Example 27, N-{[17-(5-Fluoropyridin-3-yl)-15β-hydroxyestra-1,3,5(10),16-tetraen-3-yl]carbonyl}-N-methyl-β-alanine], the IC50 was 35.3 nM and 24.2 nM.

On to `C[C@]12CC[C@@H]3c4ccc(C(=O)N5CCC[C@H]5C(=O)O)cc4CC[C@H]3[C@@H]1CC=C2c1cncc(F)c1` [Example 23, N-{[17-(5-Fluoropyridin-3-yl)estra-1,3,5(10),16-tetraen-3-yl]carbonyl}-L-proline], for which the IC50 is 1.9 nM.

As for `C[C@]12CC[C@@H]3c4ccc(C(=O)NCCCC(=O)O)cc4CC[C@H]3[C@@H]1CC=C2c1cncnc1` [Example 18, 4-({[17-(Pyrimidin-5-yl)estra-1,3,5(10),16-tetraen-3-yl]carbonyl}amino)butanoic acid], the IC50 was 23.5 nM and 31.8 nM.

On to `C[C@]12CC[C@@H]3c4ccc(C(=O)NCC(=O)O)cc4CC[C@H]3[C@@H]1CC=C2c1cncc(F)c1` [Example 10, N-{[17-(5-Fluoropyridin-3-yl)estra-1,3,5(10),16-tetraen-3-yl]carbonyl}glycine], for which the 50% inhibitory concentration (IC50) was 4.9 nM and 7.3 nM.

As for `COc1cncc(C2=CC[C@H]3[C@@H]4CCc5cc(C(=O)NCCC(=O)O)ccc5[C@H]4CC[C@]23C)c1` [Example 15, N-{[17-(5-Methoxypyridin-3-yl)estra-1,3,5(10),16-tetraen-3-yl]carbonyl}-β-alanine], the IC50 was 6.9 nM and 7.2 nM.

Turning to `C[C@]12CC[C@@H]3c4ccc(C(=O)NCCC(=O)O)cc4CC[C@H]3[C@@H]1CC=C2c1cncc(C(F)(F)F)c1` [Example 21, N-({17-[5-(Trifluoromethyl)pyridin-3-yl]estra-1,3,5(10),16-tetraen-3-yl}carbonyl)-β-alanine], the IC50 was 8.5 nM.

Take `C[C@]12CC[C@@H]3c4ccc(C(=O)NCCCC(=O)O)cc4CC[C@H]3[C@@H]1CC=C2c1cncc(F)c1` [Example 8, 4-({[17-(5-Fluoropyridin-3-yl)estra-1,3,5(10),16-tetraen-3-yl]carbonyl}amino)butanoic acid]: the IC50 is 8.5 nM and 6.8 nM.

Take `C[C@]12C[C@H](F)[C@@H]3c4ccc(C(=O)NCCCC(=O)O)cc4CC[C@H]3[C@@H]1CC=C2c1cncc(F)c1` [Example 25, 4-({[11β-Fluoro-17-(5-fluoropyridin-3-yl)estra-1,3,5(10),16-tetraen-3-yl]carbonyl}-amino)butanoic acid]: the IC50 was 29.1 nM and 16.8 nM.

A further experiment has as its target Human CYP17A1 (Homo sapiens (Human), UniProt P05093). In words: Inhibition of CYP17A1 (recombinant enzyme, progesterone hydroxylation, HPLC radio detection). The conditions noted are these: human CYP17A1 expressed in E. coli; mean of 3 or 4 independent IC50 values. Type of experiment: biochemical. As for the experimental part: The inhibition of CYP17A1 by the test compounds was evaluated using a recombinant enzyme. Human CYP17A1 was expressed in E. coli (Ehmer, P. B. et al.; J. Steroid Biochem. Mol. Biol., 75, 57-63 (2000)). The microsomal fraction and 140 μL of phosphate buffer (50 mM Na phosphate, 1 mM MgCl2, 0.1 mM EDTA, 0.1 mM dithiothreitol, pH 7.4) were preincubated separately with a mixture of progesterone (24.95 μM) and ^3H-progesterone (0.05 μM, 101.3 Ci/mmol), […] of an NADPH regeneration system (in phosphate buffer with 10 mM NADP+, 100 mM glucose 6-phosphate and 2.5 U of glucose 6-phosphate dehydrogenase) and the appropriate test substances (in 5 μl of DMSO) at 37° C. for 5 minutes. The reaction was started by addition of the enzyme and, after 30 minutes of incubation at 37° C., stopped by addition of 50 μl of 1N hydrochloric acid.
The steroids were extracted with ethyl acetate. After evaporation of the organic phase, the steroids were taken up in acetonitrile. 16α-Hydroxyprogesterone, 17α-hydroxyprogesterone and progesterone were separated using acetonitrile/water (45:55) as mobile phase on a C18 reverse-phase chromatography column (Nucleodur C18 Gravity, 3 μm, Macherey-Nagel, Düren, Germany) on an HPLC system (Agilent 1100 Series, Agilent Technologies, Waldbronn, Germany). Detection and quantification of the steroids was carried out using a radio flow detector (Berthold Technologies, Bad Wildbad, Germany). The inhibition was calculated using the formula below: […]
Each value was calculated from at least three independent experiments. The final IC50 value was calculated as the mean of 3 or 4 independent IC50 values.
Turning to `C[C@]12CC[C@@H]3c4ccc(C(=O)NCCC(=O)O)cc4CC[C@H]3[C@@H]1CC=C2c1cncc(F)c1` [Example 9, N-{[17-(5-Fluoropyridin-3-yl)estra-1,3,5(10),16-tetraen-3-yl]carbonyl}-β-alanine], the “IC50 ± SD CYP17” value was “No inhibition”.

Still in this experiment, the particulars now being: human CYP17A1 expressed in E. coli; mean of 3 or 4 independent IC50 values; read-out: IC50 ± SD CYP17.
In the case of `CC(C)(CNC(=O)c1ccc2c(c1)CC[C@@H]1[C@@H]2CC[C@]2(C)C(c3cncc(F)c3)=CC[C@@H]12)C(=O)O` [Example 5, 3-({[17-(5-Fluoropyridin-3-yl)estra-1,3,5(10),16-tetraen-3-yl]carbonyl}amino)-2,2-dimethylpropanoic acid], the IC50 is 85500 ± 7700 nM.

As for `C[C@]12CC[C@H](O)CC1=CC[C@@H]1[C@@H]2CC[C@]2(C)C(c3cccnc3)=CC[C@@H]12` [Abiraterone, abiraterone, reference compound], the IC50 is 29 ± 4 nM.

Take `C[C@]12CC[C@@H]3c4ccc(C(=O)NCC(=O)O)cc4CC[C@H]3[C@@H]1CC=C2c1cncc(F)c1` [Example 10, N-{[17-(5-Fluoropyridin-3-yl)estra-1,3,5(10),16-tetraen-3-yl]carbonyl}glycine]: the IC50 amounted to 15200 ± 1580 nM.

What is called IC50 is the concentration at which inhibition is half-maximal.
